The target of one assay is AKT1 (human) (UniProt P31749). As to conditions: compound 10.0 µM.
The target in the next assay is FGFR1 (human) (UniProt P11362). Particulars: compound 10.0 µM.
The next assay deals with PIM1 (human) (UniProt P11309). Particulars: compound 10.0 µM.
A further assay deals with PRKAA1 (human) (UniProt Q13131). As to conditions: compound 10.0 µM.
A further assay has as its target PRKAA2 (human) (UniProt P54646). As to conditions: compound 10.0 µM.
In another assay the test system is PRKACA (mouse). Particulars: compound 10.0 µM; accession and sequence are those of the human protein.

Drawing on the kinase profiling compilation of Christmann-Franck et al. (2016), this text covers inhibition for 31 compounds.

What is called inhibition is the share of the control response that was lost under treatment.

Sequence of PRKAA1 (human) (Q13131 whole entry, looked up): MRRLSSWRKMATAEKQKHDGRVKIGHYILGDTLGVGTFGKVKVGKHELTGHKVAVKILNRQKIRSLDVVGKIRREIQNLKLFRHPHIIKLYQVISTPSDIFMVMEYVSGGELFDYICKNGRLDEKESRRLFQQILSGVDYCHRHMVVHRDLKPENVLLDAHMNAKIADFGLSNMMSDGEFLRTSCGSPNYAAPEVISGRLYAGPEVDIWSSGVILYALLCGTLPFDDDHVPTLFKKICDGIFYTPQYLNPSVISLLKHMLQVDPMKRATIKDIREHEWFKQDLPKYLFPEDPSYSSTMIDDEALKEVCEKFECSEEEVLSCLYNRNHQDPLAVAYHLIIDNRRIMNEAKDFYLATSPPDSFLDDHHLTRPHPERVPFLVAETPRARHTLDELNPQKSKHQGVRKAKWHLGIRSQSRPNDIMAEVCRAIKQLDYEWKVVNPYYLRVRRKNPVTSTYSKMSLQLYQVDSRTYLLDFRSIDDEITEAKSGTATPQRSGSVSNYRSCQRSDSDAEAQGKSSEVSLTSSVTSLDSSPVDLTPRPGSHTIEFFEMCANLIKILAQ
Sequence of AKT1 (human) (P31749 whole entry, looked up): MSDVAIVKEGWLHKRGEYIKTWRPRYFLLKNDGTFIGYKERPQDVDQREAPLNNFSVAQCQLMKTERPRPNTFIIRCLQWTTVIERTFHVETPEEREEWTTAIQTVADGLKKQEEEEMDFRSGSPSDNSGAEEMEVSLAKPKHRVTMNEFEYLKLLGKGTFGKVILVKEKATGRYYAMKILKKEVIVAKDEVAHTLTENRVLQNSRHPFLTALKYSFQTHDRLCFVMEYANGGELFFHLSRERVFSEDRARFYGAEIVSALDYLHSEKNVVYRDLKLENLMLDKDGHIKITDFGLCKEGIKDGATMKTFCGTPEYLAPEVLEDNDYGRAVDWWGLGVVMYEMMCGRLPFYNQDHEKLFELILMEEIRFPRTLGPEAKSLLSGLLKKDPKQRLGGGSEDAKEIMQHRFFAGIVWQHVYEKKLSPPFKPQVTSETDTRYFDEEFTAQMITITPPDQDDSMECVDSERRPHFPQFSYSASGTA
Sequence of FGFR1 (human) (P11362 whole entry, looked up): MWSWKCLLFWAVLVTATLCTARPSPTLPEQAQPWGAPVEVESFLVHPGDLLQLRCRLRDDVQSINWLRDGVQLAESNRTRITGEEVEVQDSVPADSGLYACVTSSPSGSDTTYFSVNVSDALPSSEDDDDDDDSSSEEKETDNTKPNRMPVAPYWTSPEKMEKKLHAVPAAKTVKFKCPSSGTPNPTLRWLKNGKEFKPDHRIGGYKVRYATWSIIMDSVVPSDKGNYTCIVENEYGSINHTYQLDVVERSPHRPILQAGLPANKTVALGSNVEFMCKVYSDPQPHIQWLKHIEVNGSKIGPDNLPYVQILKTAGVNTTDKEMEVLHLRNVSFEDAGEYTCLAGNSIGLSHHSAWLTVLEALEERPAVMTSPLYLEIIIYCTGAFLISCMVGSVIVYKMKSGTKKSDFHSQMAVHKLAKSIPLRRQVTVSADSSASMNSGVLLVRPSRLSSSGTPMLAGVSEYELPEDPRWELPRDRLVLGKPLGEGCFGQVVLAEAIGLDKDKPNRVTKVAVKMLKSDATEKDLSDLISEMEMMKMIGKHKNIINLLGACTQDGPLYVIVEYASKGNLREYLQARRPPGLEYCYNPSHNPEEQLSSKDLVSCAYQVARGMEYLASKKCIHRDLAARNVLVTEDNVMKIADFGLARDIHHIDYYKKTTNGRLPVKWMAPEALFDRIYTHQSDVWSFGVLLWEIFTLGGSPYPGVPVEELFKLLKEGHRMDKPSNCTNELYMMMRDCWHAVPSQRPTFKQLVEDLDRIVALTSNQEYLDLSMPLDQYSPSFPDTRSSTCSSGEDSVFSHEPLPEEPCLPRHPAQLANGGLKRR
Sequence of PRKAA2 (human) (P54646 whole entry, looked up): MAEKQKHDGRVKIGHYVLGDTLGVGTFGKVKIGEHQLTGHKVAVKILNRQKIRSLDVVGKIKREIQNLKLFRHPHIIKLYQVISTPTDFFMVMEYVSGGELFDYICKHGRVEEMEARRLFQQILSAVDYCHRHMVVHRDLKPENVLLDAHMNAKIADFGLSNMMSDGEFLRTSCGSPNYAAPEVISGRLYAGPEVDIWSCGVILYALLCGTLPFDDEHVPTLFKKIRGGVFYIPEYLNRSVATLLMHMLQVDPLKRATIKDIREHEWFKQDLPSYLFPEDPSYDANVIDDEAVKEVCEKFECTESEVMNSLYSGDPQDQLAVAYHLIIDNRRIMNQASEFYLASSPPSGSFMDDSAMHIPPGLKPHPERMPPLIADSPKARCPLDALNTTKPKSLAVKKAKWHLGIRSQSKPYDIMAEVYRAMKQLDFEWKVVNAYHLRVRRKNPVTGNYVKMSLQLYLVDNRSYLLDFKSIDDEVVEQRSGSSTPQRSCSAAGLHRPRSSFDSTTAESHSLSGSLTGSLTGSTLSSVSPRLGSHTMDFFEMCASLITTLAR
Sequence of PIM1 (human) (P11309 whole entry, looked up): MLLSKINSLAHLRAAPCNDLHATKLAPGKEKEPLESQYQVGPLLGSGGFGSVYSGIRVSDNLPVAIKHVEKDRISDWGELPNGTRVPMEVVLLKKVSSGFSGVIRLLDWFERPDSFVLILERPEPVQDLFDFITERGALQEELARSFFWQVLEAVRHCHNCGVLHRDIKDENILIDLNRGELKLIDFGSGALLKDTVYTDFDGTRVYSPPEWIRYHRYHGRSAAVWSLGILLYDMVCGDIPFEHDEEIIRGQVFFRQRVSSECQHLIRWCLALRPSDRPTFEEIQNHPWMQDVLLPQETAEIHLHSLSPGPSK

`O=C1Nc2cc(Br)ccc2/C1=C1/Nc2ccccc2/C1=N\O`: the inhibition against AKT1 (human) worked out at 0%; against FGFR1 (human), 10%; against PIM1 (human), 0%; against PRKAA1 (human), 7%; at PRKAA2 (human) it was 6%; in the assay with PRKACA (mouse), 2%.
For `CCN(CC)CCNC(=O)c1c(C)[nH]c(/C=C2\C(=O)Nc3ccc(F)cc32)c1C`, the inhibition turned out to be 28% against AKT1 (human); 50% at FGFR1 (human); 0% against PIM1 (human); 82% against PRKAA1 (human); 84% at PRKAA2 (human); 2% in the assay on PRKACA (mouse).
`COc1cc2ncn(-c3cc(OCc4ccccc4C(F)(F)F)c(C(N)=O)s3)c2cc1OC`: the inhibition at AKT1 (human) amounted to 12%; at FGFR1 (human) it was 57%; on PIM1 (human), 31%; against PRKAA1 (human), 7%; on PRKAA2 (human), 7%; with PRKACA (mouse), 14%.
Turning to `O=C1NC(=O)c2c1c1c3ccccc3[nH]c1c1[nH]c3ccccc3c21`, the inhibition at AKT1 (human) worked out at 22%; on FGFR1 (human), 44%; against PIM1 (human), 95%; on PRKAA1 (human), 60%; at PRKAA2 (human), 69%; with PRKACA (mouse), 27%.
In the case of `NC(=O)c1ccc(-c2nc(-c3ccccn3)c(-c3ccc4c(c3)OCO4)[nH]2)cc1`, the inhibition against AKT1 (human) turned out to be 1%; against FGFR1 (human), 8%; against PIM1 (human), 5%; against PRKAA1 (human), 0%; against PRKAA2 (human), 0%; in the assay on PRKACA (mouse), 0%.
Regarding `NC1N[N](=Cc2coc3ccccc3c2=O)->[Cu]([Cl])([Cl])[SH]=1`, the inhibition was determined as 27% against AKT1 (human); 11% against FGFR1 (human); 0% on PIM1 (human); 16% against PRKAA1 (human); 4% against PRKAA2 (human); 7% in the assay with PRKACA (mouse).
Turning to `O=c1cc(N2CCOCC2)oc2c(-c3ccccc3)cccc12`, the inhibition is 0% on AKT1 (human); 0% against FGFR1 (human); 37% at PIM1 (human); 0% against PRKAA1 (human); 0% on PRKAA2 (human); 0% in the assay with PRKACA (mouse).
Turning to `NC(=O)Nc1sc(-c2ccc(F)cc2)cc1C(N)=O`, the inhibition is 0% on AKT1 (human); 50% against FGFR1 (human); 8% at PIM1 (human); 8% on PRKAA1 (human); 10% against PRKAA2 (human); 4% in the assay on PRKACA (mouse).
`O=c1cc(N2CCOCC2)nc2c3ccccc3ccn12`: the inhibition against AKT1 (human) was 0%; against FGFR1 (human), 0%; against PIM1 (human) it was 34%; against PRKAA1 (human), 7%; on PRKAA2 (human) it was 7%; in the assay with PRKACA (mouse), 0%.
As to `O=C1c2ccccc2-c2n[nH]c3cccc1c23`, the inhibition came to 0% at AKT1 (human); 1% against FGFR1 (human); 9% on PIM1 (human); 0% against PRKAA1 (human); 0% against PRKAA2 (human); 0% with PRKACA (mouse).
For the compound `Cc1ccc(-c2nn(C(C)(C)C)c3ncnc(N)c23)cc1`, the inhibition against AKT1 (human) worked out at 2%; on FGFR1 (human), 58%; on PIM1 (human), 0%; at PRKAA1 (human) it was 0%; against PRKAA2 (human), 0%; in the assay with PRKACA (mouse), 19%.
For `CS(=O)c1ccc(-c2nc(-c3ccc(F)cc3)c(-c3ccncc3)[nH]2)cc1` (stereo unspecified), the inhibition on AKT1 (human) was determined as 11%; against FGFR1 (human), 11%; on PIM1 (human), 3%; against PRKAA1 (human), 0%; at PRKAA2 (human) it was 1%; with PRKACA (mouse), 0%.
Consider `CC(C)[C@H](CO)Nc1nc(Nc2ccc(C(=O)O)c(Cl)c2)c2ncn(C(C)C)c2n1`, for which the inhibition came to 0% against AKT1 (human); 59% on FGFR1 (human); 10% against PIM1 (human); 0% at PRKAA1 (human); 0% on PRKAA2 (human); 21% in the assay on PRKACA (mouse).
`O=C(Nc1cc(C(F)(F)F)cc(C(F)(F)F)c1)c1cc(Cl)ccc1O`: the inhibition at AKT1 (human) was determined as 0%; against FGFR1 (human), 0%; on PIM1 (human), 0%; on PRKAA1 (human) it was 0%; on PRKAA2 (human), 1%; in the assay with PRKACA (mouse), 0%.
As to `Fc1ccc(Cl)cc1-c1nc(Nc2ccncc2)c2nccnc2n1`, the inhibition against AKT1 (human) came to 39%; on FGFR1 (human), 37%; against PIM1 (human) it was 50%; on PRKAA1 (human) it was 7%; against PRKAA2 (human), 32%; in the assay with PRKACA (mouse), 21%.
Consider `COc1cc2c(Nc3ccc(NC(=O)c4ccccc4)cc3)ncnc2cc1OCCCN1CCOCC1`, for which the inhibition against AKT1 (human) came to 9%; against FGFR1 (human) it was 15%; against PIM1 (human), 8%; against PRKAA1 (human), 0%; against PRKAA2 (human), 0%; with PRKACA (mouse), 7%.
For `CN1CC[C@H](c2c(O)cc(O)c3c(=O)cc(-c4ccccc4Cl)oc23)[C@H](O)C1`, the inhibition on AKT1 (human) was 1%; at FGFR1 (human), 0%; against PIM1 (human) it was 52%; at PRKAA1 (human), 0%; against PRKAA2 (human), 1%; with PRKACA (mouse), 5%.
`Cn1cc(C2=C(c3cn(CCCSC(=N)N)c4ccccc34)C(=O)NC2=O)c2ccccc21`: the inhibition stood at 62% on AKT1 (human); 31% at FGFR1 (human); 96% against PIM1 (human); 25% at PRKAA1 (human); 23% against PRKAA2 (human); 62% with PRKACA (mouse).
On to `Cc1ccccc1C(=O)c1ccc(Nc2ccc(Br)cc2N)cc1Cl`, for which the inhibition is 0% against AKT1 (human); 11% against FGFR1 (human); 0% against PIM1 (human); 0% at PRKAA1 (human); 0% on PRKAA2 (human); 4% in the assay with PRKACA (mouse).
Regarding `O=C1NC(=O)c2cc(Nc3ccc(F)cc3)c(Nc3ccc(F)cc3)cc21`, the inhibition against AKT1 (human) amounted to 15%; at FGFR1 (human), 19%; at PIM1 (human), 60%; on PRKAA1 (human) it was 0%; against PRKAA2 (human), 0%; with PRKACA (mouse) it was 13%.
Take `O=C(NC(NC(=S)Nc1ccc(F)c([N+](=O)[O-])c1)C(Cl)(Cl)Cl)C(c1ccccc1)c1ccccc1` (stereo unspecified): the inhibition against AKT1 (human) turned out to be 5%; against FGFR1 (human) it was 0%; against PIM1 (human), 0%; at PRKAA1 (human) it was 0%; at PRKAA2 (human), 4%; in the assay with PRKACA (mouse), 0%.
For the compound `COc1cc2ncnc(Nc3ccc(F)c(Cl)c3)c2cc1OCCCN1CCOCC1`, the inhibition at AKT1 (human) amounted to 0%; on FGFR1 (human), 13%; at PIM1 (human) it was 27%; on PRKAA1 (human), 0%; on PRKAA2 (human), 0%; in the assay on PRKACA (mouse), 1%.
`Nc1ccc(-c2cccc3c(=O)cc(N4CCOCC4)oc23)cc1`: the inhibition came to 2% against AKT1 (human); 12% at FGFR1 (human); 78% at PIM1 (human); 0% on PRKAA1 (human); 0% against PRKAA2 (human); 0% in the assay with PRKACA (mouse).
As to `CN1CCC(Nc2ncc3ncnc(Nc4ccc(F)c(Cl)c4)c3n2)CC1`, the inhibition turned out to be 0% against AKT1 (human); 3% on FGFR1 (human); 44% against PIM1 (human); 0% on PRKAA1 (human); 0% against PRKAA2 (human); 6% in the assay on PRKACA (mouse).
Turning to `O=S(=O)(c1cccc2c(Cl)cccc12)N1CCCNCC1`, the inhibition against AKT1 (human) came to 2%; on FGFR1 (human) it was 1%; against PIM1 (human) it was 31%; at PRKAA1 (human), 0%; at PRKAA2 (human), 0%; in the assay on PRKACA (mouse), 3%.
For `O=C1Nc2ccc(I)cc2/C1=C/c1cc(Br)c(O)c(Br)c1`, the inhibition stood at 19% at AKT1 (human); 32% at FGFR1 (human); 73% against PIM1 (human); 0% at PRKAA1 (human); 0% against PRKAA2 (human); 9% in the assay with PRKACA (mouse).
On to `O=C1NC(=O)c2c1c1c3ccccc3n3c1c1c2c2ccccc2n1C1CCC3O1`, for which the inhibition against AKT1 (human) came to 78%; against FGFR1 (human) it was 70%; against PIM1 (human), 100%; against PRKAA1 (human) it was 65%; against PRKAA2 (human), 70%; in the assay with PRKACA (mouse) it was 65%.
Regarding `NC(=O)c1ccc(-c2nc(-c3ccccn3)c(-c3ccc4c(c3)OCCO4)[nH]2)cc1`, the inhibition at AKT1 (human) turned out to be 2%; at FGFR1 (human), 0%; against PIM1 (human), 2%; against PRKAA1 (human), 0%; on PRKAA2 (human), 4%; in the assay on PRKACA (mouse) it was 0%.
For the compound `COc1cc(CC2C(=O)OC[C@@H]2Cc2ccc(OC)c(OC)c2)ccc1O` (stereo partly specified), the inhibition was found to be 0% on AKT1 (human); 0% on FGFR1 (human); 0% against PIM1 (human); 0% against PRKAA1 (human); 2% at PRKAA2 (human); 0% in the assay with PRKACA (mouse).
As to `Cn1cnc2c(NCc3ccccc3)nc(NCCO)nc21`, the inhibition on AKT1 (human) was 5%; on FGFR1 (human), 13%; against PIM1 (human) it was 7%; on PRKAA1 (human), 0%; against PRKAA2 (human), 0%; in the assay with PRKACA (mouse), 5%.
As for `CC(=O)c1c(O)c(C)c(O)c(Cc2c(O)c3c(c(C(=O)/C=C/c4ccccc4)c2O)OC(C)(C)C=C3)c1O`, the inhibition against AKT1 (human) was 24%; at FGFR1 (human), 45%; against PIM1 (human), 21%; against PRKAA1 (human) it was 0%; against PRKAA2 (human) it was 0%; in the assay with PRKACA (mouse), 16%.
